Data published in patent US10294202B2, “Pyrrolidinones as herbicides” (FMC Corporation, priority 2013, dated 2019).

Columns and labels:
wheat = experiment: Test A pre-/postemergence herbicide test; assay type: in vivo, Triticum aestivum; settings: Postemergence
How it was run: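 Visual 0–100 ratings (100 = complete control) made about 10 days after treatment, greenhouse-held plants compared with untreated controls. Treatments: postemergence sprays on one- to two-leaf plants (2–10 cm tall) and preemergence directed soil sprays after planting in loam–sand, chemicals formulated in non-phytotoxic solvent containing surfactant.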

rice = experiment: Test B flooded paddy test; assay type: in vivo, Oryza sativa; settings: 500 g ai/ha, Flood; scale of 0 to 100 where 0 is no effect and 100 is complete control
How it was run: (§1)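 Visual ratings from 0, meaning no effect, up to 100, meaning complete control, were made by comparison with untreated controls 13 to 15 days after treatment. Test compounds went straight into floodwater standing 3 cm over the soil of pots holding 2-leaf seedlings.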

sedge, umbrella = experiment: Test B flooded paddy test; assay type: in vivo, Cyperus difformis; settings: 500 g ai/ha, Flood; scale of 0 to 100 where 0 is no effect and 100 is complete control
How it was run: as §1

ducksalad = experiment: Test B flooded paddy test; assay type: in vivo, Heteranthera limosa; settings: 500 g ai/ha, Flood; scale of 0 to 100 where 0 is no effect and 100 is complete control
How it was run: as §1

barnyardgrass = experiment: Test B flooded paddy test; assay type: in vivo, Echinochloa crus-galli; settings: 500 g ai/ha, Flood; scale of 0 to 100 where 0 is no effect and 100 is complete control
How it was run: as §1

ryegrass, Italian = experiment: Test C pre-/postemergence herbicide test; assay type: in vivo, Lolium multiflorum
How it was run: (§2)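 Greenhouse plants scored visually against untreated controls 13–15 days after treatment, 0 = no effect, 100 = complete control. Test chemicals in a non-phytotoxic solvent with surfactant were applied either to soil (loam/sand) at planting or to foliage of 1- to 4-leaf plants, 2–18 cm tall.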

corn = experiment: Test C pre-/postemergence herbicide test; assay type: in vivo, Zea mays
How it was run: as §2

johnsongrass = experiment: Test C pre-/postemergence herbicide test; assay type: in vivo, Sorghum halepense
How it was run: as §2

nutsedge, yellow = experiment: Test C pre-/postemergence herbicide test; assay type: in vivo, Cyperus esculentus
How it was run: as §2

pigweed = experiment: Test C pre-/postemergence herbicide test; assay type: in vivo, Amaranthus retroflexus
How it was run: as §2

ragweed = experiment: Test C pre-/postemergence herbicide test; assay type: in vivo, Ambrosia elatior
How it was run: as §2

soybean = experiment: Test C pre-/postemergence herbicide test; assay type: in vivo, Glycine max
How it was run: as §2

oilseed rape = experiment: Test C pre-/postemergence herbicide test; assay type: in vivo, Brassica napus
How it was run: as §2

[1] = 125 g ai/ha, visual rating on 0 to 100 scale (0 no effect, 100 complete control), approx. 10 days
[2] = 500 g ai/ha, 0 to 100 scale (0 no effect, 100 complete control)
[3] = Postemergence, 31 g ai/ha, scale 0 to 100 (0 no effect, 100 complete control)
[4] = Postemergence, 62 g ai/ha, scale 0 (no effect) to 100 (complete control)
[5] = Postemergence, 125 g ai/ha, scale 0 to 100 (0 no effect, 100 complete control)
[6] = Postemergence, 250 g ai/ha, scale 0 to 100 (0 no effect, 100 complete control)
[7] = Preemergence, 31 g ai/ha, scale 0 to 100, 0 is no effect and 100 is complete control
[8] = Preemergence, 62 g ai/ha, scale 0 to 100 (0 no effect, 100 complete control)
[9] = Preemergence, 125 g ai/ha, scale 0 to 100 (0 no effect, 100 complete control)

Compound: O=C1NCC(c2cc(F)cc(F)c2)C1C(=O)Nc1ccc(F)cc1F (racemic) [Compound 278]
- Plant response rating, Wheat (wheat; [1]): 0
- Plant response rating, Wheat (wheat; [2]): 0
- Plant response rating, Rice (rice): 0
- Plant response rating, Sedge, Umbrella (sedge, umbrella): 0
- Plant response rating, Ducksalad (ducksalad): 100
- Plant response rating, Barnyardgrass (barnyardgrass): 60
- Plant response rating, Ryegrass, Italian (ryegrass, Italian; [3]): 0
- Plant response rating, Ryegrass, Italian (ryegrass, Italian; [4]): 0
- Plant response rating, Ryegrass, Italian (ryegrass, Italian; [5]): 0
- Plant response rating, Ryegrass, Italian (ryegrass, Italian; [6]): 0
- Ryegrass, Italian plant response rating (ryegrass, Italian; [7]): 0
- Ryegrass, Italian plant response rating (ryegrass, Italian; [8]): 0
- Plant response rating, Ryegrass, Italian (ryegrass, Italian; [9]): 0
- Plant response rating (scale of 0 to 100), Ryegrass, Italian (ryegrass, Italian; Preemergence, 250 g ai/ha): 0
- Plant response rating, Corn (corn; [3]): 0
- Plant response rating, Corn (corn; [4]): 0
- Plant response rating, Corn (corn; [5]): 0
- Plant response rating, Corn (corn; [6]): 0
- Corn plant response rating (corn; [7]): 0
- Corn plant response rating (corn; [8]): 0
- Plant response rating, Corn (corn; [9]): 0
- Plant response rating (scale of 0 to 100), Corn (corn; Preemergence, 250 g ai/ha): 5
- Plant response rating, Johnsongrass (johnsongrass; [3]): 0
- Plant response rating, Johnsongrass (johnsongrass; [4]): 0
- Plant response rating, Johnsongrass (johnsongrass; [5]): 0
- Plant response rating, Johnsongrass (johnsongrass; [6]): 0
- Johnsongrass plant response rating (johnsongrass; [7]): 0
- Johnsongrass plant response rating (johnsongrass; [8]): 0
- Plant response rating, Johnsongrass (johnsongrass; [9]): 0
- Plant response rating (scale of 0 to 100), Johnsongrass (johnsongrass; Preemergence, 250 g ai/ha): 0
- Plant response rating, Nutsedge, Yellow (nutsedge, yellow; [3]): 0
- Plant response rating, Nutsedge, Yellow (nutsedge, yellow; [4]): 0
- Plant response rating, Nutsedge, Yellow (nutsedge, yellow; [5]): 0
- Plant response rating, Nutsedge, Yellow (nutsedge, yellow; [6]): 15
- Nutsedge, Yellow plant response rating (nutsedge, yellow; [7]): 0
- Nutsedge, Yellow plant response rating (nutsedge, yellow; [8]): 0
- Plant response rating, Nutsedge, Yellow (nutsedge, yellow; [9]): 5
- Plant response rating (scale of 0 to 100), Nutsedge, Yellow (nutsedge, yellow; Preemergence, 250 g ai/ha): 5
- Plant response rating, Pigweed (pigweed; [3]): 0
- Plant response rating, Pigweed (pigweed; [4]): 5
- Plant response rating, Pigweed (pigweed; [5]): 15
- Plant response rating, Pigweed (pigweed; [6]): 15
- Pigweed plant response rating (pigweed; [7]): 5
- Pigweed plant response rating (pigweed; [8]): 0
- Plant response rating, Pigweed (pigweed; [9]): 0
- Plant response rating (scale of 0 to 100), Pigweed (pigweed; Preemergence, 250 g ai/ha): 0
- Plant response rating, Ragweed (ragweed; [3]): 0
- Plant response rating, Ragweed (ragweed; [4]): 0
- Plant response rating, Ragweed (ragweed; [5]): 10
- Plant response rating, Ragweed (ragweed; [6]): 0
- Ragweed plant response rating (ragweed; [7]): 0
- Ragweed plant response rating (ragweed; [8]): 0
- Plant response rating, Ragweed (ragweed; [9]): 0
- Plant response rating (scale of 0 to 100), Ragweed (ragweed; Preemergence, 250 g ai/ha): 0
- Plant response rating, Soybean (soybean; [3]): 50
- Plant response rating, Soybean (soybean; [4]): 55
- Plant response rating, Soybean (soybean; [5]): 40
- Plant response rating, Soybean (soybean; [6]): 15
- Soybean plant response rating (soybean; [7]): 0
- Soybean plant response rating (soybean; [8]): 0
- Plant response rating, Soybean (soybean; [9]): 10
- Plant response rating (scale of 0 to 100), Soybean (soybean; Preemergence, 250 g ai/ha): 10
- Plant response rating, Oilseed Rape (oilseed rape; [3]): 0
- Plant response rating, Oilseed Rape (oilseed rape; [4]): 0
- Plant response rating, Oilseed Rape (oilseed rape; [5]): 5
- Plant response rating, Oilseed Rape (oilseed rape; [6]): 0
- Oilseed Rape plant response rating (oilseed rape; [7]): 0
- Oilseed Rape plant response rating (oilseed rape; [8]): 0
- Plant response rating, Oilseed Rape (oilseed rape; [9]): 0
- Plant response rating (scale of 0 to 100), Oilseed Rape (oilseed rape; Preemergence, 250 g ai/ha): 5

Compound: O=C1NCC(c2cc(F)cc(F)c2)C1C(=O)Nc1cccc(F)c1F (racemic) [Compound 279]
- Plant response rating, Wheat (wheat; [1]): 40
- Plant response rating, Wheat (wheat; [2]): 60
- Plant response rating, Rice (rice): 10
- Plant response rating, Sedge, Umbrella (sedge, umbrella): 0
- Plant response rating, Ducksalad (ducksalad): 100
- Plant response rating, Barnyardgrass (barnyardgrass): 75
- Plant response rating, Ryegrass, Italian (ryegrass, Italian; [3]): 0
- Plant response rating, Ryegrass, Italian (ryegrass, Italian; [4]): 0
- Plant response rating, Ryegrass, Italian (ryegrass, Italian; [5]): 0
- Plant response rating, Ryegrass, Italian (ryegrass, Italian; [6]): 0
- Ryegrass, Italian plant response rating (ryegrass, Italian; [7]): 0
- Ryegrass, Italian plant response rating (ryegrass, Italian; [8]): 10
- Plant response rating, Ryegrass, Italian (ryegrass, Italian; [9]): 30
- Plant response rating (scale of 0 to 100), Ryegrass, Italian (ryegrass, Italian; Preemergence, 250 g ai/ha): 60
- Plant response rating, Corn (corn; [3]): 0
- Plant response rating, Corn (corn; [4]): 0
- Plant response rating, Corn (corn; [5]): 0
- Plant response rating, Corn (corn; [6]): 0
- Corn plant response rating (corn; [7]): 0
- Corn plant response rating (corn; [8]): 0
- Plant response rating, Corn (corn; [9]): 5
- Plant response rating (scale of 0 to 100), Corn (corn; Preemergence, 250 g ai/ha): 65
- Plant response rating, Johnsongrass (johnsongrass; [3]): 0
- Plant response rating, Johnsongrass (johnsongrass; [4]): 0
- Plant response rating, Johnsongrass (johnsongrass; [5]): 0
- Plant response rating, Johnsongrass (johnsongrass; [6]): 0
- Johnsongrass plant response rating (johnsongrass; [7]): 0
- Johnsongrass plant response rating (johnsongrass; [8]): 25
- Plant response rating, Johnsongrass (johnsongrass; [9]): 70
- Plant response rating (scale of 0 to 100), Johnsongrass (johnsongrass; Preemergence, 250 g ai/ha): 80
- Plant response rating, Nutsedge, Yellow (nutsedge, yellow; [3]): 0
- Plant response rating, Nutsedge, Yellow (nutsedge, yellow; [4]): 0
- Plant response rating, Nutsedge, Yellow (nutsedge, yellow; [5]): 0
- Plant response rating, Nutsedge, Yellow (nutsedge, yellow; [6]): 0
- Nutsedge, Yellow plant response rating (nutsedge, yellow; [7]): 0
- Nutsedge, Yellow plant response rating (nutsedge, yellow; [8]): 0
- Plant response rating, Nutsedge, Yellow (nutsedge, yellow; [9]): 0
- Plant response rating (scale of 0 to 100), Nutsedge, Yellow (nutsedge, yellow; Preemergence, 250 g ai/ha): 55
- Plant response rating, Pigweed (pigweed; [3]): 30
- Plant response rating, Pigweed (pigweed; [4]): 10
- Plant response rating, Pigweed (pigweed; [5]): 30
- Plant response rating, Pigweed (pigweed; [6]): 20
- Pigweed plant response rating (pigweed; [7]): 0
- Pigweed plant response rating (pigweed; [8]): 5
- Plant response rating, Pigweed (pigweed; [9]): 0
- Plant response rating (scale of 0 to 100), Pigweed (pigweed; Preemergence, 250 g ai/ha): 75
- Plant response rating, Ragweed (ragweed; [3]): 15
- Plant response rating, Ragweed (ragweed; [4]): 20
- Plant response rating, Ragweed (ragweed; [5]): 35
- Plant response rating, Ragweed (ragweed; [6]): 35
- Ragweed plant response rating (ragweed; [7]): 0
- Ragweed plant response rating (ragweed; [8]): 0
- Plant response rating, Ragweed (ragweed; [9]): 10
- Plant response rating (scale of 0 to 100), Ragweed (ragweed; Preemergence, 250 g ai/ha): 65
- Plant response rating, Soybean (soybean; [3]): 40
- Plant response rating, Soybean (soybean; [4]): 10
- Plant response rating, Soybean (soybean; [5]): 0
- Plant response rating, Soybean (soybean; [6]): 10
- Soybean plant response rating (soybean; [7]): 0
- Soybean plant response rating (soybean; [8]): 0
- Plant response rating, Soybean (soybean; [9]): 0
- Plant response rating (scale of 0 to 100), Soybean (soybean; Preemergence, 250 g ai/ha): 10
- Plant response rating, Oilseed Rape (oilseed rape; [3]): 0
- Plant response rating, Oilseed Rape (oilseed rape; [4]): 30
- Plant response rating, Oilseed Rape (oilseed rape; [5]): 0
- Plant response rating, Oilseed Rape (oilseed rape; [6]): 0
- Oilseed Rape plant response rating (oilseed rape; [7]): 0
- Oilseed Rape plant response rating (oilseed rape; [8]): 0
- Plant response rating, Oilseed Rape (oilseed rape; [9]): 30
- Plant response rating (scale of 0 to 100), Oilseed Rape (oilseed rape; Preemergence, 250 g ai/ha): 60
